In the NIST ThermoML archive (doi:10.1021/je400056z):

Assay: xn = mol fraction of the nth substance listed
Settings: Liquid, Vibrating tube method

CCCCCCC [heptane] + O=C=O
Settings	mass density [kg/m3]
312.02 K, 10986 kPa, x2 = 0.9496	729.05
312.02 K, 12001 kPa, x2 = 0.9496	747.88
312.02 K, 13001 kPa, x2 = 0.9496	763.05
312.02 K, 13981 kPa, x2 = 0.9496	776.11
312.02 K, 15000 kPa, x2 = 0.9496	787.02
312.02 K, 16006 kPa, x2 = 0.9496	797.48
312.02 K, 16997 kPa, x2 = 0.9496	806.48
312.02 K, 18005 kPa, x2 = 0.9496	814.74
312.02 K, 19001 kPa, x2 = 0.9496	822.53
312.02 K, 19995 kPa, x2 = 0.9496	829.62
312.02 K, 20996 kPa, x2 = 0.9496	836.32
312.02 K, 22002 kPa, x2 = 0.9496	842.78
312.02 K, 23003 kPa, x2 = 0.9496	848.74
312.02 K, 24007 kPa, x2 = 0.9496	854.47
312.02 K, 24361 kPa, x2 = 0.9496	856.44
312.94 K, 5011 kPa, x2 = 0.3148	693.37
312.94 K, 6008 kPa, x2 = 0.3148	694.74
312.94 K, 7004 kPa, x2 = 0.3148	696.16
312.94 K, 8002 kPa, x2 = 0.3148	697.62
312.94 K, 8997 kPa, x2 = 0.3148	699.03
312.94 K, 9991 kPa, x2 = 0.3148	700.6
312.94 K, 11000 kPa, x2 = 0.3148	701.81
312.94 K, 12009 kPa, x2 = 0.3148	703.08
312.94 K, 13002 kPa, x2 = 0.3148	704.39
312.94 K, 13992 kPa, x2 = 0.3148	705.63
312.94 K, 15009 kPa, x2 = 0.3148	706.99
312.94 K, 16009 kPa, x2 = 0.3148	708.23
312.94 K, 16997 kPa, x2 = 0.3148	709.2
312.94 K, 18018 kPa, x2 = 0.3148	710.45
312.94 K, 19015 kPa, x2 = 0.3148	711.73
312.94 K, 20006 kPa, x2 = 0.3148	712.83
312.94 K, 21008 kPa, x2 = 0.3148	713.93
312.94 K, 22010 kPa, x2 = 0.3148	715.06
312.94 K, 23004 kPa, x2 = 0.3148	716.14
312.94 K, 24017 kPa, x2 = 0.3148	717.34
312.94 K, 24997 kPa, x2 = 0.3148	718.41
312.98 K, 7014 kPa, x2 = 0.7514	729.2
312.98 K, 8012 kPa, x2 = 0.7514	733.47
312.98 K, 8996 kPa, x2 = 0.7514	737.34
312.98 K, 10005 kPa, x2 = 0.7514	741.22
312.98 K, 10989 kPa, x2 = 0.7514	744.88
312.98 K, 12007 kPa, x2 = 0.7514	748.38
312.98 K, 12994 kPa, x2 = 0.7514	751.74
312.98 K, 14005 kPa, x2 = 0.7514	754.92
312.98 K, 14990 kPa, x2 = 0.7514	758
312.98 K, 16009 kPa, x2 = 0.7514	761.15
312.98 K, 17002 kPa, x2 = 0.7514	764.01
312.98 K, 17990 kPa, x2 = 0.7514	766.8
312.98 K, 19008 kPa, x2 = 0.7514	769.54
312.98 K, 20006 kPa, x2 = 0.7514	772.19
312.98 K, 21018 kPa, x2 = 0.7514	774.69
312.98 K, 21997 kPa, x2 = 0.7514	777.23
312.98 K, 23004 kPa, x2 = 0.7514	779.67
312.98 K, 23994 kPa, x2 = 0.7514	782.07
312.98 K, 24571 kPa, x2 = 0.7514	783.46
313.03 K, 5011 kPa, x2 = 0.5085	706.14
313.03 K, 6005 kPa, x2 = 0.5085	708.31
313.03 K, 7004 kPa, x2 = 0.5085	710.37
313.03 K, 8011 kPa, x2 = 0.5085	712.42
313.03 K, 8996 kPa, x2 = 0.5085	714.37
313.03 K, 10001 kPa, x2 = 0.5085	716.4
313.03 K, 11006 kPa, x2 = 0.5085	718.29
313.03 K, 11994 kPa, x2 = 0.5085	720.05
313.03 K, 13000 kPa, x2 = 0.5085	721.92
313.03 K, 14002 kPa, x2 = 0.5085	723.71
313.03 K, 15010 kPa, x2 = 0.5085	725.36
313.03 K, 16006 kPa, x2 = 0.5085	727.16
313.03 K, 17002 kPa, x2 = 0.5085	728.84
313.03 K, 18023 kPa, x2 = 0.5085	730.55
313.03 K, 19009 kPa, x2 = 0.5085	732.08
313.03 K, 20003 kPa, x2 = 0.5085	733.69
313.03 K, 21000 kPa, x2 = 0.5085	735.25
313.03 K, 22016 kPa, x2 = 0.5085	736.75
313.03 K, 23006 kPa, x2 = 0.5085	738.31
313.03 K, 24019 kPa, x2 = 0.5085	739.74
313.03 K, 25004 kPa, x2 = 0.5085	741.18
313.08 K, 2007 kPa, x2 = 0.0218	670.88
313.08 K, 3009 kPa, x2 = 0.0218	671.95
313.08 K, 4008 kPa, x2 = 0.0218	673.02
313.08 K, 5014 kPa, x2 = 0.0218	674.05
313.08 K, 6010 kPa, x2 = 0.0218	675.07
313.08 K, 7005 kPa, x2 = 0.0218	676.19
313.08 K, 8174 kPa, x2 = 0.0218	677.13
313.08 K, 9005 kPa, x2 = 0.0218	678.13
313.08 K, 10008 kPa, x2 = 0.0218	679.18
313.08 K, 11000 kPa, x2 = 0.0218	680.15
313.08 K, 12009 kPa, x2 = 0.0218	681.11
313.08 K, 13002 kPa, x2 = 0.0218	682.02
313.08 K, 14006 kPa, x2 = 0.0218	683
313.08 K, 15004 kPa, x2 = 0.0218	683.85
313.08 K, 16007 kPa, x2 = 0.0218	684.89
313.08 K, 17002 kPa, x2 = 0.0218	685.71
313.08 K, 18005 kPa, x2 = 0.0218	686.44
313.08 K, 19010 kPa, x2 = 0.0218	687.37
313.08 K, 20009 kPa, x2 = 0.0218	688.24
313.08 K, 21004 kPa, x2 = 0.0218	689.1
313.08 K, 22010 kPa, x2 = 0.0218	689.97
313.08 K, 23003 kPa, x2 = 0.0218	690.81
313.08 K, 24007 kPa, x2 = 0.0218	691.63
313.08 K, 24906 kPa, x2 = 0.0218	692.41
322.85 K, 5012 kPa, x2 = 0.3148	682.49
322.85 K, 6012 kPa, x2 = 0.3148	684.11
322.85 K, 7008 kPa, x2 = 0.3148	685.75
322.85 K, 8009 kPa, x2 = 0.3148	687.35
322.85 K, 8996 kPa, x2 = 0.3148	688.86
322.85 K, 10005 kPa, x2 = 0.3148	690.36
322.85 K, 11012 kPa, x2 = 0.3148	691.87
322.85 K, 11996 kPa, x2 = 0.3148	693.32
322.85 K, 13003 kPa, x2 = 0.3148	694.75
322.85 K, 14006 kPa, x2 = 0.3148	696.09
322.85 K, 15010 kPa, x2 = 0.3148	697.48
322.85 K, 16003 kPa, x2 = 0.3148	698.79
322.85 K, 17009 kPa, x2 = 0.3148	700.14
322.85 K, 18001 kPa, x2 = 0.3148	701.39
322.85 K, 19012 kPa, x2 = 0.3148	702.67
322.85 K, 20007 kPa, x2 = 0.3148	703.86
322.85 K, 21000 kPa, x2 = 0.3148	705.12
322.85 K, 22017 kPa, x2 = 0.3148	706.33
322.85 K, 23010 kPa, x2 = 0.3148	707.55
322.85 K, 23985 kPa, x2 = 0.3148	708.71
322.85 K, 25004 kPa, x2 = 0.3148	709.93
322.91 K, 8013 kPa, x2 = 0.7514	707.83
322.91 K, 8994 kPa, x2 = 0.7514	712.85
322.91 K, 10015 kPa, x2 = 0.7514	717.65
322.91 K, 10996 kPa, x2 = 0.7514	722.08
322.91 K, 12005 kPa, x2 = 0.7514	726.29
322.91 K, 13025 kPa, x2 = 0.7514	730.31
322.91 K, 13986 kPa, x2 = 0.7514	733.99
322.91 K, 15009 kPa, x2 = 0.7514	737.66
322.91 K, 16002 kPa, x2 = 0.7514	741.14
322.91 K, 17007 kPa, x2 = 0.7514	744.51
322.91 K, 17997 kPa, x2 = 0.7514	747.63
322.91 K, 19009 kPa, x2 = 0.7514	750.74
322.91 K, 20004 kPa, x2 = 0.7514	753.71
322.91 K, 21008 kPa, x2 = 0.7514	756.6
